Tests used:
[1] = biological target: T1, GST tagged LXRalpha LBD (ligand binding domain) (Homo sapiens, UniProt Q13133); experiment: LanthaScreen TR-FRET Liver X Receptor Coactivator Assay, LXR alpha-LBD (co-activator recruitment; IP and % Emax relative to T0901317); format: biochemical; conditions: for EC50 / LXR alpha IP (nM): Inflection Point of co-activator recruitment, LXR alpha-LBD, TR-FRET; for Emax: read-out: LXR alpha actiivty at max dose (%)
T1 construct: purchased Invitrogen pv4655
T1 sequence (Q13133 209-447 limits assumed): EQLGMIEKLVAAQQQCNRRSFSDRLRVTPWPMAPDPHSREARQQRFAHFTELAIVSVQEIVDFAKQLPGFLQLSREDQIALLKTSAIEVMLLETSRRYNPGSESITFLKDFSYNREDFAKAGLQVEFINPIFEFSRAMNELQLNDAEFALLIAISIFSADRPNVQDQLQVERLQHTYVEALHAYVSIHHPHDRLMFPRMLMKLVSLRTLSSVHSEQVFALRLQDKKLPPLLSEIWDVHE
How it was run: (§1)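 Readout is time-resolved FRET between a terbium anti-GST antibody bound to the tagged LBD and a fluorescein-labelled coactivator peptide recruited on ligand binding. Samples are incubated at room temperature before reading, and efficacy is expressed against T0901317.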

[2] = biological target: T2, GST tagged LXRbeta LBD (ligand binding domain) (Homo sapiens, UniProt P55055); experiment: LanthaScreen TR-FRET Liver X Receptor Coactivator Assay, LXR beta-LBD (co-activator recruitment; IP and % Emax relative to T0901317); format: biochemical; conditions: for EC50: Inflection Point of co-activator recruitment, LXR beta-LBD, TR-FRET; for Emax: read-out: LXR beta actiivty at max dose (%)
T2 construct: purchased Invitrogen pv4658.pps
T2 sequence (P55055 222-460 limits assumed): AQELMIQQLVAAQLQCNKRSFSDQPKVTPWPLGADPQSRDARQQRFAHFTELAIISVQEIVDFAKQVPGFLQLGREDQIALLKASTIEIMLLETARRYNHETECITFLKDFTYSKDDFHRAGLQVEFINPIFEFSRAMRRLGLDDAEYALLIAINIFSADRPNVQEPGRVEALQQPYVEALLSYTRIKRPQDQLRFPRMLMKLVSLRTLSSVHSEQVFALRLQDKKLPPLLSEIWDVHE
How it was run: as §1

[3] = efficacy at max dose in relation to reference T0901317, LXR alpha-LBD
[4] = efficacy at max dose in relation to reference T0901317, LXR beta-LBD

Structure (SMILES) | EC50 [1] [nM] | Emax [1, 3] [%] | EC50 [2] [nM] | Emax [2, 4] [%] | LXR alpha IP (nM) [1] | LXR alpha actiivty at max dose (%) [1, 3] [%] | LXR beta actiivty at max dose (%) [2, 4] [%]
CN(C)C(=O)c1ccc(N2CCC(CCCN(C)C(=O)C3(c4ccccc4)CCCC3)CC2)nc1Cl [Example 1-42, 2-chloro-N,N-dimethyl-6-(4-(3-(N-methyl-1-phenylcyclopentanecarboxamido)pro-pyl)piperidin-1-yl)nicotinamide] | – | 11 | 92 | 64 | No IP | – | –
COc1ccccc1[C@@]1(C(=O)N(C)CCCC2CCN(c3ccc(C(=O)N(C)C)c(Cl)n3)CC2)CCCO1 [Example 1-60, (R)-2-chloro-6-(4-(3-(2-(2-methoxyphenyl)-N-methyltetrahydrofuran-2-carboxamido)propyl)piperidin-1-yl)-N,N-dimethylnicotinamide] | 1450 | 33 | 60 | 93 | – | – | –
CN(C)C(=O)c1ccc(N2CCC(CCCN(C)C(=O)[C@]3(c4ccccc4)CCOC3)CC2)nc1Cl [Example 1-54, (S)-2-chloro-N,N-dimethyl-6-(4-(3-(N-methyl-3-phenyltetrahydrofuran-3-carboxamido)propyl)piperidin-1-yl)nicotinamide] | – | 15 | 579 | 49 | No IP | – | –
CN(C)C(=O)c1ccc(N2CCC(CCCN(C)C(=O)[C@](O)(c3ccccc3)C(F)(F)F)CC2)nc1Cl [Example 1-26, (R)-2-chloro-N,N-dimethyl-6-(4-(3-(3,3,3-trifluoro-2-hydroxy-N-methyl-2-phenylpropanamido)propyl)piperidin-1-yl)nicotinamide] | – | – | – | – | No IP | 6 | 51
CN(C)C(=O)c1ccc(N2CCC(CCCN(C)C(=O)[C@](O)(c3ccccc3)C(F)(F)F)CC2)nc1C#N [Example 2-19, (R)-2-cyano-N,N-dimethyl-6-(4-(3-(3,3,3-trifluoro-2-hydroxy-N-methyl-2-phenylpropanamido)propyl)piperidin-1-yl)nicotinamide] | 2610 | 23 | 128 | 76 | – | – | –
CN(C)C(=O)c1ccc(N2CCC(CCCN(C)C(=O)[C@](O)(c3ccccc3)C3CC3)CC2)nc1Cl [Example 1-24, (R)-2-chloro-6-(4-(3-(2-cyclopropyl-2-hydroxy-N-methyl-2-phenylacetamido)propyl)piperidin-1-yl)-N,N-dimethylnicotinamide] | – | 12 | 351 | 59 | No IP | – | –
CN(C)C(=O)c1ccc(N2CCC(CCCN(C)C(=O)[C@@](O)(c3ccccc3)C3CCC3)CC2)nc1Cl [Example 1-23, (S)-2-chloro-6-(4-(3-(2-cyclobutyl-2-hydroxy-N-methyl-2-phenylacetamido)propyl)piperidin-1-yl)-N,N-dimethylnicotinamide] | 1760 | 39 | 64 | 90 | – | – | –
CN(C)C(=O)c1ccc(N2CCC(CCCN(C)C(=O)[C@](O)(c3cccc(OC4CC4)c3)C(F)(F)F)CC2)nc1Cl [Example 1-41, (R)-2-chloro-6-(4-(3-(2-(3-cyclopropoxyphenyl)-3,3,3-trifluoro-2-hydroxy-N-methylpropanamido)propyl)piperidin-1-yl)-N,N-dimethylnicotinamide] | – | 0 | 105 | 44 | No IP | – | –
COc1cccc([C@@](O)(C(=O)N(C)CC(C)CC2CCN(c3ccc(C(=O)N(C)C)c(Cl)n3)CC2)C(F)(F)F)c1 (single isomer, unassigned) [Example 3-2] | – | 0 | 53 | 81 | No IP | – | –
COc1cccc(C2(C(=O)N(C)CCCC3CCN(c4ccc(C(=O)N(C)C)c(Cl)n4)CC3)CCOCC2)c1 [Example 1-44, 2-chloro-6-(4-(3-(4-(3-methoxyphenyl)-N-methyltetrahydro-2H-pyran-4-carboxamido)propyl)piperidin-1-yl)-N,N-dimethylnicotinamide] | – | 0 | 822 | 39 | No IP | – | –
CN(C)C(=O)c1ccc(N2CCC(CCCN(C)C(=O)[C@](O)(c3cccc(O)c3)C(F)(F)F)CC2)nc1Cl [Example 1-58, (R)-2-chloro-N,N-dimethyl-6-(4-(3-(3,3,3-trifluoro-2-hdyroxy-2-(3-hydroxyphenyl)-N-methylpropanamido)propyl)piperidin-1-yl)nicotinamide] | 2780 | 37 | 37 | 86 | – | – | –
CN(C)C(=O)c1ccc(N2CCC(CCCN(C)C(=O)[C@](O)(c3cccc(OC(F)(F)F)c3)C(F)(F)F)CC2)nc1Cl [Example 1-40, (R)-2-chloro-N,N-dimethyl-6-(4-(3-(3,3,3-trifluoro-2-hydroxy-N-methyl-2-(3-(trifluoromethoxy)phenyl)propanamido)propyl)piperidin-1-yl)nicotinamide] | – | 0 | 52 | 63 | No IP | – | –
CN(C)C(=O)c1ccc(N2CCC(CCCN(C)C(=O)[C@@]3(c4ccccc4Cl)CCCO3)CC2)nc1Cl [Example 1-64, (S)-2-chloro-6-(4-(3-(2-(2-chlorophenyl)-N-methyltetrahydrofuran-2-carboxamido)propyl)piperidin-1-yl)-N,N-dimethylnicotinamide] | – | 0 | 285 | 26 | No IP | – | –

Second part, the molecule after the results:

EC50 [1] [nM] | Emax [1, 3] [%] | EC50 [2] [nM] | Emax [2, 4] [%] | LXR alpha IP (nM) [1] | LXR alpha actiivty at max dose (%) [1, 3] [%] | LXR beta actiivty at max dose (%) [2, 4] [%] | Structure (SMILES)
2280 | 9 | 165 | 101 | – | – | – | CN(C)C(=O)c1ccc(N2CCC(CCCNC(=O)[C@@](O)(c3ccccc3)C(F)(F)F)CC2)nc1Cl [Example 5-9, (S)-2-chloro-N,N-dimethyl-6-(4-(3-(3,3,3-trifluoro-2-hydroxy-2-phenylpropanamido)propyl)piperidin-1-yl) nicotinamide]
– | 27 | 636 | 106 | No IP | – | – | CC(C)C(O)(C(=O)NCCCC1CCN(c2ccc(C(=O)N(C)C)c(Cl)n2)CC1)C(F)(F)F (centres unmarked) [Example 5-7, 2-chloro-6-(4-(3-(2-hydroxy-3-methyl-2-(trifluoromethyl)butanamido)propyl)piperidin-1-yl)-N,N-dimethylnicotinamide]
381 | 55 | 11 | 68 | – | – | – | CN(C)C(=O)c1ccc(N2CCC3(CC2)C[C@@H]3CCN(C)C(=O)[C@](O)(c2ccccc2)C(F)(F)F)cc1Cl [Example 7-5, 2-chloro-N,N-dimethyl-4-((R)-1-(2-((R)-3,3,3-trifluoro-2-hydroxy-N-methyl-2-phenylpropanamido)ethyl)-6-azaspiro[2.5]octan-6-yl)benzamide]
– | 0 | 136 | 20 | No IP | – | – | COc1cccc([C@@](O)(C(=O)N(C)CCCC2(C)CCN(c3ccc(C(=O)N(C)C)c(Cl)c3)CC2)C(F)(F)F)c1 [Example 9-6, (R)-2-chloro-N,N-dimethyl-4-(4-methyl-4-(3-(3,3,3-trifluoro-2-hydroxy-2-(3-methoxyphenyl)-N-methylpropanamido)propyl)piper-idin-1-yl)benzamide]
– | 0 | 217 | 49 | No IP | – | – | CCOc1cccc([C@@](O)(C(=O)N(C)CCCC2CCN(c3ccc(C(=O)N(C)C)c(Cl)c3)CC2)C(F)(F)F)c1 [Example 4-2, (R)-2-chloro-4-(4-(3-(2-(3-ethoxyphenyl)-3,3,3-trifluoro-2-hydroxy-N-methylpropanamido)propyl)piperidin-1-yl)-N,N-dimethylbenzamide]
2730 | 22 | 215 | 83 | – | – | – | CN(C)C(=O)c1ccc(N2CCC(CCCNC(=O)C3(c4ccccc4)CCCC3)CC2)nc1Cl [Example 5-15, 2-chloro-N,N-dimethyl-6-(4-(3-(1-phenylcyclopentane-carboxamido)propyl)piperidin-1-yl)nicotinamide]
– | 0 | 727 | 42 | No IP | – | – | COc1cccc([C@@](O)(C(=O)N(C)C2CC(CC3CCN(c4ccc(C(=O)N(C)C)c(C)n4)CC3)C2)C(F)(F)F)c1 (single isomer, unassigned) [Example 11-1]
1400 | 36 | 47 | 64 | – | – | – | COc1cccc([C@@](O)(C(=O)N(C)CC2CC(C3CCN(c4ccc(C(=O)N(C)C)c(Cl)n4)CC3)C2)C(F)(F)F)c1 (stereo partly drawn) [Example 16-1, (R)-2-chloro-N,N-dimethyl-6-(4-(3-((3,3,3-trifluoro-2-hydroxy-2-(3-methoxyphenyl)-N-methylpropanamido)methyl)cyclobutyl)piperidin-1-yl)nicotinamide]

— patent publication US10961215B2, “N-aryl and N-heteroaryl piperidine derivatives as liver X receptor beta agonists, compositions, and their use” (Merck Sharp & Dohme Corp., priority 2016, dated 2021)
